Source: ChEMBL document CHEMBL2021844, “The central valine concept provides an entry in a new class of non peptide inhibitors of the p53-MDM2 interaction” (Bioorg Med Chem Lett, 2012)

Key:
Protein Mdm4 = target: T1, Protein Mdm4 (Homo sapiens, UniProt O15151); assay: Inhibition of p53 derived peptide binding to MDM4 using fluorescent dye Cy5 by TR-FRET assay
T1 sequence (O15151 whole entry): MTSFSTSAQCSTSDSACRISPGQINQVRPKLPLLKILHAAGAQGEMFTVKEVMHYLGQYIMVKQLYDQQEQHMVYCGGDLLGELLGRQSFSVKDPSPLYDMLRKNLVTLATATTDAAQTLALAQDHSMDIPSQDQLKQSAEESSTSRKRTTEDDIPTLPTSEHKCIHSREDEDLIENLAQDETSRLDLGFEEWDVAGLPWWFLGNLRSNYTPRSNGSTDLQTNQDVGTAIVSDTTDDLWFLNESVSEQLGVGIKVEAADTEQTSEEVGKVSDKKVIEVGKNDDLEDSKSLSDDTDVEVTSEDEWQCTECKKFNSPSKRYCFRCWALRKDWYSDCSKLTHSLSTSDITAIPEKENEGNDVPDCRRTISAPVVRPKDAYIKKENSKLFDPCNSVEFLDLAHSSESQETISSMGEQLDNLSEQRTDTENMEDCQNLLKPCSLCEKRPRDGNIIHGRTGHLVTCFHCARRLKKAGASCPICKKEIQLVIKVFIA

[1] = target: Tumour suppressor p53/oncoprotein Mdm2 (Homo sapiens, UniProt Q00987); assay: Inhibition of p53 (18 to 26)-MDM2 (2 to 188) interaction using fluorescent dye Cy5 by TR-FRET assay; format: protein assay
Tumour suppressor p53/oncoprotein Mdm2, sequence (P04637 whole entry): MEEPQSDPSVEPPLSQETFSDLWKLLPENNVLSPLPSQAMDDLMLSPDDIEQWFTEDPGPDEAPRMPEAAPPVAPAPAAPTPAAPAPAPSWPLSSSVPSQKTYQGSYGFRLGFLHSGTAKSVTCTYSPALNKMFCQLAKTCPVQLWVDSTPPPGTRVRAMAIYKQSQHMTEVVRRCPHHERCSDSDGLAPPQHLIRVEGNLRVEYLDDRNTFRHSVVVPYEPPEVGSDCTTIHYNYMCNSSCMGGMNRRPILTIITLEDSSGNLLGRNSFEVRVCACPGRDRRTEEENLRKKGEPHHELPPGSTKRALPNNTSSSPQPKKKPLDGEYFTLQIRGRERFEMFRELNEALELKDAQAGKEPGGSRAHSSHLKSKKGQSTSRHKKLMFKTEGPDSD
Tumour suppressor p53/oncoprotein Mdm2, sequence (Q00987 whole entry): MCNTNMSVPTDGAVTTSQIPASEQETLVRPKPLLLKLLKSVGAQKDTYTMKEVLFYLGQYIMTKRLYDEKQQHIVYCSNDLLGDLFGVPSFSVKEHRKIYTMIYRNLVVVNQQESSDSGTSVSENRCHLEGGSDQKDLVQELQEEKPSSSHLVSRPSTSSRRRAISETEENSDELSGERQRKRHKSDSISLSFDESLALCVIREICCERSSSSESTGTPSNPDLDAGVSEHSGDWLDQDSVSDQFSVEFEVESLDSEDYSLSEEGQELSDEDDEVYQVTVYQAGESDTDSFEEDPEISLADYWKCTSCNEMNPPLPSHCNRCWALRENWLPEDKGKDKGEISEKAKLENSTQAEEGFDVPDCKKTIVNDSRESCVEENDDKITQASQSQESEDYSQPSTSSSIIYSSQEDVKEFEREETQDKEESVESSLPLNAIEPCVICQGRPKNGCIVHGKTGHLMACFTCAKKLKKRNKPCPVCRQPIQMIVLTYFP

SJSA-1 [2] = assay: Ratio of IC50 for human SJSA1 cells expressing p53 to IC50 for human p53 deficient SAOS2 cells; format: functional
SJSA-1 [3] = assay: Antiproliferative activity against human SJSA1 cells expressing p53; format: functional, cell-based

IC50 (Protein Mdm4) [µM] | IC50 [1] [nM] | SMILES | Ratio IC50 (SJSA-1 [2]) | IC50 (SJSA-1 [3]) [µM]
18 | 900 | CC(C)CCn1cnc(-c2ccccc2)c1-c1c[nH]c2cc(Cl)ccc12 | – | –
70 | 3400 | COc1ccc(Cn2c(C)nc(Cc3ccc(N)cc3)c2Cc2ccc(Cl)cc2)cc1 | – | –
22 | 200 | Clc1ccc(Cn2cnc(-c3ccccc3)c2-c2c[nH]c3cc(Cl)ccc23)cc1 | – | –

SMILES | IC50 (Protein Mdm4) [µM] | IC50 [1] [nM] | Ratio IC50 (SJSA-1 [2]) | IC50 (SJSA-1 [3]) [µM]
O=C(NCCN1CCOCC1)c1[nH]c2cc(Cl)ccc2c1-c1c(-c2ccccc2)ncn1Cc1ccc(Cl)cc1 | 19 | – | 3 | 7.3
